Assay results as given in PMC10254657, “Efficient pH-Responsive Nano-Drug Delivery System Based on Dynamic Boronic Acid/Ester Transformation” (Molecules, 2023).

Experiments:
[1] = Body weight of tumor-bearing mice during treatment; format: in vivo, BALB/c nude mice; conditions: 7.5 mg/kg i.v. on days 0, 3 and 6
Experimental: (§1) BALB/c nude mice (4–5 weeks old) were used for the evaluation of the antitumor activities of the nanotherapies. The human prostate cancer cell line DU145 was grown to 80% confluence in 90 mm tissue culture dishes. After cell harvesting, the cells were resuspended in PBS at 4 °C to reach a final concentration of 1.5 × 10^7 cells/mL. The right flanks of the BALB/c nude mice were subcutaneously injected with 200 μL of a cell suspension containing 3 × 10^6 cells. At 4 days after implantation, the tumors reached approximately 150 mm^3 in volume, and then the mice were randomly divided into four groups (n = 6 mice per group). Mice bearing DU145 tumor xenografts were injected intravenously with PBS, Taxol, PTX/PBA NPs, and PTX/mPEG-PAL NPs at 7.5 mg/kg three times on days 0, 3, and 6. Tumor volumes and body weights were monitored and recorded once every three days. The lengths (L) and widths (W) of the tumors were measured with calipers, and the tumor volume was calculated by the following formula: V = (L × W^2)/2, where W is shorter than L.

human DU145 tumor model = conditions: 7.5 mg/kg i.v. on days 0, 3 and 6
Experimental: as §1

[2] = In vivo pharmacokinetics after intravenous administration; conditions: ICR mice
Experimental: Pharmacokinetics was evaluated in ICR mice (about 20 g). […] A total of 0.1 mL of fresh blood was collected through orbital at appropriate intervals, put into a centrifuge tube pretreated with heparin sodium, and centrifugated (5000 rpm, 10 min). A total of 100 µL acetonitrile was added to 50 µL of supernatant collected to extract PTX and precipitate protein in serum, and the mixture was centrifugated for another 10 min (1200 rpm). The amounts of PTX in the collected supernatant were determined by HPLC (acetonitrile:water = 50:50 (v:v); flow rate: 1.0 mL/min; wavelength: 227 nm).

DU145 cells = assay: In vitro cytotoxicity by MTT assay; format: cell-based; conditions: Homo sapiens, DU-145, 24 h (Figure 5 legend) / 48 h (method), read-out: half-maximal inhibitory concentrations (IC50)
Experimental: Human prostate cancer cells (DU145) were cultivated in DMEM supplemented with fetal bovine serum (FBS, 10%), streptomycin (100 μg/mL), and penicillin (100 units/mL). The cells were incubated in a humid atmosphere with 5% CO2 at 37 °C.
The in vitro cytotoxicities of PTX-loaded NPs were measured by MTT assays. Cells were seeded in 96-well plates (5000–8000 cells per well) and incubated at 37 °C. After 24 h, the medium was replaced with 180 μL of fresh medium, and the cells were treated with serial dilutions of PTX/PBA NPs, PTX/mPEG-PAL NPs, blank PBA NPs, and blank mPEG-PAL NPs (20 μL) for 48 h at 37 °C. At the end of the incubation, to each well was added […] of MTT solution (5 mg/mL in PBS). After 4 h, the MTT solution was removed from the wells, followed by the addition of supplementary DMSO (100 μL) to dissolve the purple MTT formazan crystals. The absorbance of each well was determined at 490 nm on a microplate reader (Flexstation 3, Molecular Devices LLC, Sunnyvale, CA, USA).

DU145 tumor xenografts = assay: TUNEL assay of the tumors; format: in vivo, BALB/c nude mice; conditions: compared with PBS; tumors excised at 15 d
Description: The tumor tissue and other organs from the sacrificed mice were excised at 15 d of the treatments with various drugs. After being fixed in n 4% formaldehyde, dehydrated with ethanol, and embedded in paraffin, the tumor tissue and organs were further sectioned into 5 μm slices for hematoxylin and eosin (H&E) staining and the terminal deoxynucleotidyl transferase-mediated dUTP nick-end labeling (TUNEL) staining assay. The H&E-stained tissues and TUNEL-stained tissues were imaged by fluorescence microscopy (NIKON ECLIPSE C1, Tokyo, Japan).

t1/2α [2]: 3.24 min
AUC(0-inf) ([2]; mouse, plasma): 85.4 ng·h/mL
AUC(0-t) ([2]; mouse, plasma): 67.5 ng·h/mL
Cmax ([2]; mouse, plasma): 94.6 ng/mL
half-life ([2]; mouse, plasma, read-out: t1/2β (converted)): 26 min
SMILES: CC(=O)O[C@H]1C(=O)[C@@]2(C)[C@H]([C@H](OC(=O)c3ccccc3)[C@]3(O)C[C@H](OC(=O)[C@H](O)[C@@H](NC(=O)c4ccccc4)c4ccccc4)C(C)=C1C3(C)C)[C@]1(OC(C)=O)CO[C@@H]1C[C@@H]2O [Taxol, Paclitaxel]
body weight of mice [1]: remained almost unchanged in the first 9 days and then showed a slow uptrend
therapeutic efficacy (tumor photograph and weight at the end of treatment) (human DU145 tumor model; end of treatment): better therapeutic efficacy than PBS
tumor growth (tumor volume) (human DU145 tumor model; first 6 days): completely inhibited
IC50 (DU145 cells): 3.04 nM
cell apoptosis rate in tumors (TUNEL) (DU145 tumor xenografts): dramatic increase
